Data published in PubChem BioAssay (NCI).
“And” between values parts separate entries of the source, which are not always exact repeats. Equal values may be shown once.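 Five compound concentrations were applied to cells in 96-well plates for 48 hours; endpoints were derived by simple linear interpolation of the resulting dose-response curve. At the GI50, growth is halved. TGI denotes the concentration required for complete inhibition of growth.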

Columns and labels:
Experiment in all cases: NCI anticancer screen, dose series, 48 h
NCI-H226 lung = test system: NCI-H226 lung
TK-10 renal = test system: TK-10 renal
HT29 colon = test system: HT29 colon
HCT-116 colon = test system: HCT-116 colon
OVCAR-3 ovarian = test system: OVCAR-3 ovarian
SW-620 colon = test system: SW-620 colon
RPMI-8226 leukemia = test system: RPMI-8226 leukemia
OVCAR-5 ovarian = test system: OVCAR-5 ovarian
HCT-15 colon = test system: HCT-15 colon
HOP-62 NSCLC = test system: HOP-62 NSCLC

Compound	TGI (NCI-H226 lung) [µM]	TGI (TK-10 renal) [µM]	TGI (HT29 colon)	TGI (HCT-116 colon)	TGI (OVCAR-3 ovarian)	TGI (SW-620 colon)	TGI (RPMI-8226 leukemia)	TGI (OVCAR-5 ovarian) [µM]	TGI (HCT-15 colon)	TGI (HOP-62 NSCLC)	GI50 (NCI-H226 lung) [µM]	GI50 (TK-10 renal) [µM]	GI50 (HT29 colon) [µM]	GI50 (HCT-116 colon) [µM]	GI50 (OVCAR-3 ovarian) [µM]	GI50 (SW-620 colon) [µM]	GI50 (RPMI-8226 leukemia) [µM]	GI50 (OVCAR-5 ovarian) [µM]	GI50 (HCT-15 colon) [µM]	GI50 (HOP-62 NSCLC) [µM]
C/C(CC(=O)CCC(=O)Nc1cccc(C(F)(F)F)c1)=N\NC(=O)NN	> 100	> 100	> 100 µM	> 100 µM	> 100 µM	> 100 µM	> 100 µM	> 100	> 100 µM	> 100 µM	–	–	–	–	–	–	–	–	–	–
COc1ccc2c(c1)/C(=C/c1c(C)nc3sc(C)nn13)C(=O)N2	> 100	> 100	> 100 µM	> 100 µM	37.9 µM	> 100 µM	> 100 µM	> 100	> 100 µM	61.9 µM	> 28.4	7.43	0.451	1.77	0.959	0.695	4.17	9.28	0.879	4.35
Cc1nc2ccccc2c(N)c1-c1cc(C)c2c(C)nc3ccccc3c2n1	2.94	2.78	2.52 µM	0.728 µM	1.83 µM	0.435 µM	0.52 µM	3.06	0.562 µM	3.36 µM	1.44	1.44	0.749	0.257	0.69	0.183	0.173	1.59	0.216	1.77
CCC(CO)Nc1nc2ccc(Cl)cc2c2ccccc12 (stereo unspecified)	31.7	18	15.6 µM	22.7 µM	24.7 µM	26.9 µM	26.4 µM	19.7	15.4 µM	21 µM	11.4	3.91	4.58	10.8	12.2	13.5	4.04	5.4	3.7	7.95
COC1CCC2C(NS(=O)(=O)c3ccc(C)cc3)CCCC2O1 (stereo unspecified) (tested in a mixture with another compound)	> 34.5	> 34.5	> 34.5 µM	15.8 µM	> 34.5 µM	> 34.5 µM	14.7 µM	> 34.5	> 34.5 µM	> 34.5 µM	–	–	–	–	–	–	–	–	–	–
CCN(CCO)CC1CCCC2CCCCC21 (stereo unspecified)	> 100	> 100	> 100 µM	> 100 µM	> 100 µM	> 100 µM	> 100 µM	> 100	> 100 µM	> 100 µM	–	–	–	–	–	–	–	–	–	–
CSc1nc2c(c(=O)[nH]1)N=C1c3ccccc3C(=O)C1C(c1ccccc1)N2 (stereo unspecified)	> 100	> 100	> 100 µM	> 100 µM	5.67 µM	> 100 µM	> 100 µM	> 100	> 100 µM	> 100 µM	4.2	73.6	2.97	4.21	2.12	2.92	3.01	63.4	2.8	5.37
COC(=O)[C@@H]1[C@H](O)[C@H](C)[C@H](O)[C@@](C)(O)/C=C\C=C(C)C(=O)Nc2c(C)c(OC(C)=O)c3c(c2O)C(=O)C(C)=C2OCOC(=C23)C(C)=C[C@@](C)(O)[C@H](O)[C@@H](C)[C@H]1OC(C)=O	> 100	> 100	> 100 µM and 66.9 µM	> 100 µM and 66.9 µM	87.6 µM and 66.9 µM and > 100 µM	> 100 µM and 21 µM	> 100 µM and 66.9 µM and 96.5 µM	> 100	> 100 µM and 66.9 µM	> 100 µM and 66.9 µM	–	–	–	59.7	56.5	–	24.1	–	42.5	–
O=C(Nc1ccccc1OC(F)(F)F)Nc1n[nH]c2ccccc12	> 100	> 100	> 100 µM	> 100 µM	> 100 µM	> 100 µM	53.1 µM	> 100	> 100 µM	73.4 µM	26.1	37.9	26.1	16.2	90.8	36.8	5.2	34.3	36.2	19.6
CC(C)=CC(=O)C1c2cccc(O)c2C(=O)c2c(O)cc(C)cc21 (stereo unspecified)	4.65	7.83	20.5 µM	6.39 µM	3.7 µM	10.2 µM	30.4 µM	5.13	10.6 µM	7.87 µM	–	–	–	–	–	–	–	–	–	–
CC/C=C\CCC/C=C1/C(=O)C=C[C@@H]1C/C=C\CCCC(=O)OC	9.64	20.1	3.87 µM	4.95 µM	11.8 µM	18.7 µM	8.15 µM	17.6	5.13 µM	11 µM	3.25	7.61	2.14	2.44	3.39	4.16	2.93	5.28	2.1	3.54
CCCCC(=O)OCC(=O)[C@]1(O)Cc2c(O)c3c(c(O)c2[C@@H](OC2CC(NC(=O)C(F)(F)F)C(O)C(C)O2)C1)C(=O)c1c(OC)cccc1C3=O (stereo partly specified)	0.192	15.1	> 100 µM	2.91 µM	20.1 µM	> 52.4 µM	32.7 µM	7.49	6.9 µM	0.988 µM	–	–	–	–	–	–	–	–	–	–
Cc1ccc2c(=O)cc(-c3ccc(F)cc3)[nH]c2n1	> 100	> 100	> 100 µM	> 100 µM	> 100 µM	> 100 µM	95.1 µM	> 100	> 100 µM	> 100 µM	–	–	–	33.9	32.2	–	–	–	–	–
NNC(=O)Nc1cccnc1	> 100	> 100	> 100 µM	> 100 µM	> 100 µM	> 100 µM	> 100 µM	> 100	> 100 µM	> 100 µM	–	–	–	–	–	–	–	–	–	–
O=C(CC1(O)C(=O)Nc2c(Cl)cc(Cl)cc21)c1ccc(Br)cc1Br (stereo unspecified)	34.8	32	40.9 µM	15.2 µM	43.8 µM	10.7 µM	21.6 µM	31.9	22.2 µM	36.5 µM	–	–	–	–	–	–	–	–	–	–
CC(C)C/C(CC(=O)CCC(=O)Nc1ccccc1[N+](=O)[O-])=N\NC(=O)c1cc2ccccc2cc1O	> 100	> 100	> 100 µM	> 100 µM	99.3 µM	> 100 µM	> 100 µM	> 100	> 100 µM	> 100 µM	–	–	–	–	–	–	–	–	–	–
COc1cc(Cc2cnc(/N=C3\C(=O)N(CN4CCN(c5c(F)cc6c(=O)c(C(=O)O)cn(C7CC7)c6c5OC)CC4C)c4ccc(F)cc43)nc2N)cc(OC)c1OC (stereo unspecified)	43.3	25.3	> 100 µM	20.6 µM	22.1 µM	23.3 µM	8.24 µM	22.5	5.18 µM	27.4 µM	13.8	11.6	14.9	7.78	5.87	5.28	2.31	10.6	1.35	14.4
CC1=C(C(=O)NCc2ccccc2)C(/C=C/c2ccccc2)C(C(=O)NCc2ccccc2)=C(C)N1	> 100	> 100	> 100 µM	> 100 µM	> 100 µM	> 100 µM	> 100 µM	> 100	> 100 µM	> 100 µM	–	–	–	–	–	–	–	–	–	–
